Results reported in patent US10598672B2, “Methods and compositions for diagnosing and treating loss and/or distortion of taste or smell” (Cyrano Therapeutics, Inc., priority 2014, dated 2020).
Marks after values point to notes of the source that are not given here.

How the values were obtained:
[1] = Body weight with calibrated clinical scale; assay type: in vivo, human; conditions: 10 patients
Experimental: (§1) Serum theophylline levels were measured by fluorescence polarization at each treatment condition. Body weight was measured with a calibrated clinical scale during each study condition and reported at the final measurement in each study condition.

[2] = tested on: patients with taste dysfunction; assay: Subjective taste acuity and flavor perception (0-100 scale); assay type: in vivo, human; conditions: for FLAVOR PERCEPTION: DEGREE OF IMPROVEMENT / TASTE ACUITY: DEGREE OF IMPROVEMENT: Mean ± SEM
Experimental: Subjective statements of acuity loss were quantitated by use of a scale from 0-100 with 100 reflecting total loss of taste function, 0 reflecting no loss and a number between 0-100 reflecting appropriate degree of loss. Mean±SEM of loss degree was measured among all patients and each pathology initiating taste dysfunction.
Subjective statements of taste acuity loss and loss of flavor perception were quantitated by use of a scale from 0-100 with 100 reflecting total loss of taste acuity or flavor perception, 0 reflecting no loss and a number between 0-100 reflecting appropriate degree of loss. […] Mean±SEM of loss degree was measured among all patients and each pathology initiating taste dysfunction.
[…] Saliva Shh and measurements of taste function by use of subjective responses of acuity and flavor perception and in olfactometry was measured at intervals of 2-6 months in these patients.

[3] = Serum theophylline level by fluorescence polarization; assay type: in vivo, human
Experimental: as §1

patients with hyposmia [4] = assay: Olfactometry: DT, RT, ME and H for pyridine, nitrobenzene, thiophene, amyl acetate; assay type: in vivo, human; conditions: for AMYL ACETATE DT, detection threshold / AMYL ACETATE H, hedonic value / AMYL ACETATE ME, magnitude estimation / AMYL ACETATE RT, recognition threshold / NI[…], detection threshold / NI[…], hedonic value / NI[…], magnitude estimation / NI[…], recognition threshold / PYRIDINE DT, detection threshold / PYRIDINE H, hedonic value / PYRIDINE ME, magnitude estimation / PYRIDINE RT, recognition threshold / THIOPHENE DT, detection threshold / THIOPHENE H, hedonic value / THIOPHENE ME, magnitude estimation / THIOPHENE RT, recognition threshold: hyposmic, oral theophylline, Mean ± SEM
patients with hyposmia [5] = conditions: previous open-label controlled clinical trial, 312 patients with hyposmia and hypogeusia, oral; cited from earlier work
[6] = MEN, patient number 38, after oral theophylline
[7] = WOMEN, patient number 41, after oral theophylline
[8] = all patients, patient number 79, after oral theophylline
[9] = ALL PATIENTS (31) treated with oral theophylline
[10] = ALLERGIC RHINITIS (11) treated with oral theophylline
[11] = CONGENITAL (9) treated with oral theophylline
[12] = PIHH (10) treated with oral theophylline
[13] = POST GENERAL ANESTHESIA (1) treated with oral theophylline
[14] = after intranasal treatment vs before treatment or after oral treatment
[15] = after oral treatment vs before treatment, 10 patients
[16] = hyposmic patients TREATED (31) with oral theophylline
[17] = oral theophylline dose 200 mg (6 patients)
[18] = oral theophylline dose 400 mg (6 patients)
[19] = oral theophylline dose 600 mg (14 patients)
[20] = oral theophylline dose 800 mg (5 patients)

## Cn1c(=O)c2[nH]cnc2n(C)c1=O [theophylline]
[1]; after intranasal treatment
  weight increase from pretreatment values, mean (SEM): 2.5 (0.5) kg
[1]; after oral treatment
  weight increase from pretreatment values, mean (SEM): 1.5 (0.4) kg
[2]; [6]
  FLAVOR PERCEPTION: I[…]: 22
  FLAVOR PERCEPTION: I[…], figure in parentheses: 58
  TASTE ACUITY: I[…]: 21
  TASTE ACUITY: I[…], figure in parentheses: 55
  FLAVOR PERCEPTION: DEGREE OF IMPROVEMENT: 18 ± 4%
  TASTE ACUITY: DEGREE OF IMPROVEMENT: 20 ± 5%
[2]; [7]
  FLAVOR PERCEPTION: I[…]: 23
  FLAVOR PERCEPTION: I[…], figure in parentheses: 54
  TASTE ACUITY: I[…]: 24
  TASTE ACUITY: I[…], figure in parentheses: 59
  FLAVOR PERCEPTION: DEGREE OF IMPROVEMENT: 36 ± 6%
  TASTE ACUITY: DEGREE OF IMPROVEMENT: 35 ± 6%
[2]; after oral treatment 200-1000 mg for 2-10 months
  patients with improvement in both subjective taste acuity and flavor perception: about 60%
[2]; [8]
  FLAVOR PERCEPTION: I[…]: 45
  FLAVOR PERCEPTION: I[…], figure in parentheses: 63
  TASTE ACUITY: I[…]: 45
  TASTE ACUITY: I[…], figure in parentheses: 63
  FLAVOR PERCEPTION: DEGREE OF IMPROVEMENT: 24 ± 4%
  TASTE ACUITY: DEGREE OF IMPROVEMENT: 28 ± 4^+ %
[3]; during oral treatment, at time of maximum improvement, 10 patients
  mean (SEM) serum theophylline level: 6.4 (2.0) mg/L
[3]; human, serum, other: intranasal, 20 μg per naris, during intranasal treatment
  concentration at 4 weeks: 0 ng/mL
Patients with hyposmia [4]; [9]
  SMELL IMPROVEMENT Patient (%): 61%
  SMELL IMPROVEMENT Patient Number: 19
Patients with hyposmia [4]; [10]
  SMELL IMPROVEMENT Patient (%): 45%
  SMELL IMPROVEMENT Patient Number: 5
Patients with hyposmia [4]; [11]
  SMELL IMPROVEMENT Patient (%): 56%
  SMELL IMPROVEMENT Patient Number: 5
Patients with hyposmia [4]; [12]
  SMELL IMPROVEMENT Patient (%): 80%
  SMELL IMPROVEMENT Patient Number: 8
Patients with hyposmia [4]; [13]
  SMELL IMPROVEMENT Patient (%): 100%
  SMELL IMPROVEMENT Patient Number: 1
Patients with hyposmia [4]; TREATED MEN (19)
  AMYL ACETATE DT, detection threshold: 4.7 ± 0.9^b BU
  AMYL ACETATE H, hedonic value: 3 ± 3%
  AMYL ACETATE ME, magnitude estimation: 17 ± 5%
  AMYL ACETATE RT, recognition threshold: 5.3 ± 0.9^a BU
  NI[…], detection threshold: 4.8 ± 1.1^b BU
  NI[…], hedonic value: 6 ± 5%
  NI[…], magnitude estimation: 19 ± 5%
  NI[…], recognition threshold: 5.2 ± 1.2^b BU
  PYRIDINE DT, detection threshold: 4.8 ± 0.9^a BU
  PYRIDINE H, hedonic value: −30 ± 7%
  PYRIDINE ME, magnitude estimation: 36 ± 7%
  PYRIDINE RT, recognition threshold: 5.6 ± 1.0^c BU
  THIOPHENE DT, detection threshold: 5.6 ± 0.9^b BU
  THIOPHENE H, hedonic value: −7 ± 3%
  THIOPHENE ME, magnitude estimation: 15 ± 5%
  THIOPHENE RT, recognition threshold: 7.6 ± 1.0 BU
Patients with hyposmia [4]; TREATED WOMEN (12)
  AMYL ACETATE DT, detection threshold: 7.4 ± 1.1 BU
  AMYL ACETATE H, hedonic value: 2 ± 6%
  AMYL ACETATE ME, magnitude estimation: 22 ± 7%
  AMYL ACETATE RT, recognition threshold: 8.7 ± 1.0 BU
  NI[…], detection threshold: 6.8 ± 1.4 BU
  NI[…], hedonic value: 8 ± 7%
  NI[…], magnitude estimation: 25 ± 8%
  NI[…], recognition threshold: 7.3 ± 1.1 BU
  PYRIDINE DT, detection threshold: 7.1 ± 0.9 BU
  PYRIDINE H, hedonic value: −38 ± 8%
  PYRIDINE ME, magnitude estimation: 42 ± 9%
  PYRIDINE RT, recognition threshold: 8.0 ± 1.0 BU
  THIOPHENE DT, detection threshold: 7.1 ± 1.2 BU
  THIOPHENE H, hedonic value: −19 ± 6%
  THIOPHENE ME, magnitude estimation: 30 ± 7%
  THIOPHENE RT, recognition threshold: 8.1 ± 1.3 BU
Patients with hyposmia [4]; [14]
  DTs and RTs for each odor: lower (more sensitive)
  Hedonic responses to nitrobenzene: more positive (more pleasant)
  Hedonic responses to thiophene: more negative (more unpleasant)
  Magnitude estimations for each odor: higher (more intense)
Patients with hyposmia [4]; [15]
  DTs and RTs for all odorants: decreased (more sensitive)
  HRs for all odorants: increased
  MEs for all odorants: increased (more sensitive)
Patients with hyposmia [4]; [16]
  AMYL ACETATE DT: 1.2 ± 0.6^d,a2 BU
  AMYL ACETATE H: 3 ± 4%
  AMYL ACETATE ME: 17 ± 5^a2%
  AMYL ACETATE RT: 5.5 ± 0.8^d BU
  PYRIDINE DT: 5.7 ± 0.7^c,b2 BU
  PYRIDINE H: −32 ± 6%
  PYRIDINE ME: 40 ± 6%
  PYRIDINE RT: 6.7 ± 0.8^d BU
  THEOPHENE DT: 5.1 ± 0.7^e,a2 BU
  THEOPHENE H: −9 ± 4^a2%
  THEOPHENE ME: 18 ± 4^a2%
  THEOPHENE RT: 5.5 ± 0.8^e,e2 BU
Patients with hyposmia [4]; hyposmic patients after oral treatment (text of Example 9)
  patients who exhibited improved smell function: 60%
Patients with hyposmia [4]; [17]
  AMYL ACETATE DT: 8.2 ± 2.1 BU
  AMYL ACETATE H: 8 ± 8%
  AMYL ACETATE ME: 12 ± 11%
  AMYL ACETATE RT: 8.6 ± 1.9 BU
  PYRIDINE DT: 8.4 ± 0.8 BU
  PYRIDINE H: −34 ± 13%
  PYRIDINE ME: 35 ± 15%
  PYRIDINE RT: 9.8 ± 0.9 BU
  THIOPHENE DT: 8.2 ± 1.8 BU
  THIOPHENE H: −14 ± 11%
  THIOPHENE RT: 8.8 ± 2.0 BU
  Thiophene magnitude estimation (%): 10 ± 15 BU
Patients with hyposmia [4]; [18]
  AMYL ACETATE DT: 6.0 ± 1.0 BU
  AMYL ACETATE H: 0 ± 0%
  AMYL ACETATE ME: 17 ± 10%
  AMYL ACETATE RT: 6.2 ± 1.7 BU
  PYRIDINE DT: 7.0 ± 1.8 BU
  PYRIDINE H: −35 ± 15%
  PYRIDINE ME: 43 ± 12%
  PYRIDINE RT: 7.8 ± 2.2 BU
  THIOPHENE DT: 6.2 ± 1.9 BU
  THIOPHENE H: −6 ± 1%
  THIOPHENE RT: 9.2 ± 2.4 BU
  Thiophene magnitude estimation (%): 0 ± 0 BU
Patients with hyposmia [4]; [19]
  AMYL ACETATE DT: 5.0 ± 1.2^c BU
  AMYL ACETATE H: 14 ± 5%
  AMYL ACETATE ME: 24 ± 8%
  AMYL ACETATE RT: 5.4 ± 1.2^b BU
  PYRIDINE DT: 5.2 ± 0.9^d BU
  PYRIDINE H: −10 ± 8%
  PYRIDINE ME: 50 ± 8%
  PYRIDINE RT: 5.8 ± 1.1^d BU
  THIOPHENE DT: 6.2 ± 1.1 BU
  THIOPHENE H: −19 ± 7%
  THIOPHENE RT: 7.9 ± 1.0 BU
  Thiophene magnitude estimation (%): 26 ± 7 BU
Patients with hyposmia [4]; [20]
  AMYL ACETATE DT: 4.0 ± 1.3^d BU
  AMYL ACETATE H: 15 ± 12%
  AMYL ACETATE ME: 17 ± 11%
  AMYL ACETATE RT: 4.5 ± 1.0^b BU
  PYRIDINE DT: 2.8 ± 1.2^a BU
  PYRIDINE H: −20 ± 13%
  PYRIDINE ME: 36 ± 15%
  PYRIDINE RT: 4.0 ± 1.8^d BU
  THIOPHENE DT: 4.0 ± 1.5^d BU
  THIOPHENE H: −15 ± 16%
  THIOPHENE RT: 5.2 ± 1.4 BU
  Thiophene magnitude estimation (%): 29 ± 16 BU
Patients with hyposmia [5]
  patients in whom hyposmia was successfully corrected: more than 50%
